# Source: patent US9492471B2, “Methods of treating a disease or disorder associated with Bruton'S Tyrosine Kinase” (Celgene Avilomics Research, Inc., priority 2013, dated 2016)
# Read-outs that look alike come from different tables or passages of the source.
# Legend:
# Experiment in all cases: HotSpot kinase profiling
# Format in all cases: biochemical
# [1] = target: T1, ALK6/BMPR1B (Homo sapiens, UniProt O00238)
# T1 construct: purchased Reaction Biology Corp
# Outline: (§1)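 P81 filtration radiometric readout; 2 h incubation at room temperature; 0.1% phosphoric acid wash; DMSO negative control; % inhibition, mean of replicate runs.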
# [2] = target: T2, DAPK1 (Homo sapiens, UniProt P53355)
# T2 construct: purchased Reaction Biology Corp
# T2 sequence (P53355 whole entry): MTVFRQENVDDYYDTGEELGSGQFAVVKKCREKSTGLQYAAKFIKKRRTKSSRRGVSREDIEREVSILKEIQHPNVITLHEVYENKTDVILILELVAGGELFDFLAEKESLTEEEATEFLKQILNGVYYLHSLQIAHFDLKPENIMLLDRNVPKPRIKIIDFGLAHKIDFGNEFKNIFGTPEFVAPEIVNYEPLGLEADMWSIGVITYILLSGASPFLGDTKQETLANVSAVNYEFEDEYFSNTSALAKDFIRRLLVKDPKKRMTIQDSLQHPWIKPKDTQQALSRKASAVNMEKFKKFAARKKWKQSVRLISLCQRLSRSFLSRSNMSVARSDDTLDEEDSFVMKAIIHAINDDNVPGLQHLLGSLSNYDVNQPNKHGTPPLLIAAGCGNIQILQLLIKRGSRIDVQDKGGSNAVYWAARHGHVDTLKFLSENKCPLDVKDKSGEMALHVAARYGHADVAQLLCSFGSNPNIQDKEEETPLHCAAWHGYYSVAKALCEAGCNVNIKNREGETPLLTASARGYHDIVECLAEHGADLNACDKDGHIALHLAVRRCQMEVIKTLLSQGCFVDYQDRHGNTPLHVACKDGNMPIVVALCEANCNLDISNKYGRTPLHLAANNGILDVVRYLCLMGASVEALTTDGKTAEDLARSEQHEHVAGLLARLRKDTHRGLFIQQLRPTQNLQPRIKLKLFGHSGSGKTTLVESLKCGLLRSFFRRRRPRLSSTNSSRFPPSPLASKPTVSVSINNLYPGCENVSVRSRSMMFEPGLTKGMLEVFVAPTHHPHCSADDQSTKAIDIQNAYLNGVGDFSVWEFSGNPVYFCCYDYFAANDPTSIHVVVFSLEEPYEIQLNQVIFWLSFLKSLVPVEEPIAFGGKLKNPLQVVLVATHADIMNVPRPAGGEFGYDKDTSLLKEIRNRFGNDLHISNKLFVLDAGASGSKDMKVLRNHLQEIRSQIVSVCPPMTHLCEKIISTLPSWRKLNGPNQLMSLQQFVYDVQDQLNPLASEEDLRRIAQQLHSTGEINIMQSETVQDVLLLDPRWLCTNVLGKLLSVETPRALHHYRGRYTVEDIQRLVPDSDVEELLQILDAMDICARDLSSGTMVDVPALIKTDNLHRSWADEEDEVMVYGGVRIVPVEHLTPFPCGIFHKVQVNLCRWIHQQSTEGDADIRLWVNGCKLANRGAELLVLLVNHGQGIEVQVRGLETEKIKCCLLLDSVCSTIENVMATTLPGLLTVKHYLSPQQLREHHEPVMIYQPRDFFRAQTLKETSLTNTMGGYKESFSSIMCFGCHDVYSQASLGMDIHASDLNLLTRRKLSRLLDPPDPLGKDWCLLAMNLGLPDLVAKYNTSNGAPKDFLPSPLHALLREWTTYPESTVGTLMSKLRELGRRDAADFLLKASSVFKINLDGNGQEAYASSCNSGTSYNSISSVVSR
# Outline: as §1
# [3] = target: T3, PKCa (Homo sapiens, UniProt P17252)
# T3 construct: purchased Reaction Biology Corp
# Outline: as §1
# [4] = target: T4, PKCiota (Homo sapiens, UniProt P41743)
# T4 construct: purchased Reaction Biology Corp
# T4 sequence (P41743 1-596): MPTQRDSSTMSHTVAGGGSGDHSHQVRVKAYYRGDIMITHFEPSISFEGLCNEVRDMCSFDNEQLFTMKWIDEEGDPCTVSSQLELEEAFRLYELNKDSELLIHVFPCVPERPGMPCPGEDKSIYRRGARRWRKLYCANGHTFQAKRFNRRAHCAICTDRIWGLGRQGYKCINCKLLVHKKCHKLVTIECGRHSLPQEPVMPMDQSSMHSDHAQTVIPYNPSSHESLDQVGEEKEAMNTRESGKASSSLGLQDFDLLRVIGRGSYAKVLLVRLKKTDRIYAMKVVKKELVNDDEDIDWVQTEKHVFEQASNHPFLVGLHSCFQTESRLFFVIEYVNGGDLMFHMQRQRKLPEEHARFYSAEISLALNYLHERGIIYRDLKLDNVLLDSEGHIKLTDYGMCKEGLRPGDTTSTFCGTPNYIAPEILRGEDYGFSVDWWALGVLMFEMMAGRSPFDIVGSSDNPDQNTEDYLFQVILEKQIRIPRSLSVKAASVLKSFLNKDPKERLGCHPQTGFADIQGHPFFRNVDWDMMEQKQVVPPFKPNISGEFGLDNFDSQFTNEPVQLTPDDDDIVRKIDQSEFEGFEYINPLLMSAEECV
# Outline: as §1
# [5] = target: T5, PKG2/PRKG2 (Homo sapiens, UniProt Q13237)
# T5 construct: purchased Reaction Biology Corp
# T5 sequence (Q13237 1-762): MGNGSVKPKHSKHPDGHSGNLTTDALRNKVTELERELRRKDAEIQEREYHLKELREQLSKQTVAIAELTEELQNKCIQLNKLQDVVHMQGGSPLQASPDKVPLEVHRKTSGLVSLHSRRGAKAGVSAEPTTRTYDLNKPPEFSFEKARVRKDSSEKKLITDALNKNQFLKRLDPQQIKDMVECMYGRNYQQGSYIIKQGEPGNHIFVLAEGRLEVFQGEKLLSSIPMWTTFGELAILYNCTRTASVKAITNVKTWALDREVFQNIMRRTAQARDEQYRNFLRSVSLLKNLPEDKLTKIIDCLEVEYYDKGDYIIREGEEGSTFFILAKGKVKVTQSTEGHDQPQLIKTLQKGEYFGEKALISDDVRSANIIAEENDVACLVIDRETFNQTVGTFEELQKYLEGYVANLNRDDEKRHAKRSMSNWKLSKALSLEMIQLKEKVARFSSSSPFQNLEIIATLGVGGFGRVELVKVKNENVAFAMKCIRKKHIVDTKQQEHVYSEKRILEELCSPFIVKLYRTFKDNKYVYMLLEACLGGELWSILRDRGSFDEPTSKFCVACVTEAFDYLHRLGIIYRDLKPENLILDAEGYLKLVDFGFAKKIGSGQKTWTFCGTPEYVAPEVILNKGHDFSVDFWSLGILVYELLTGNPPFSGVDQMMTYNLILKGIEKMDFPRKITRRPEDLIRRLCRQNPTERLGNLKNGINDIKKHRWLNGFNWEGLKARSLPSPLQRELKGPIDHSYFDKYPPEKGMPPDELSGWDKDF
# Outline: as §1
# [6] = target: T6, VRK2 (Homo sapiens, UniProt Q86Y07)
# T6 construct: purchased Reaction Biology Corp
# T6 sequence (Q86Y07 whole entry): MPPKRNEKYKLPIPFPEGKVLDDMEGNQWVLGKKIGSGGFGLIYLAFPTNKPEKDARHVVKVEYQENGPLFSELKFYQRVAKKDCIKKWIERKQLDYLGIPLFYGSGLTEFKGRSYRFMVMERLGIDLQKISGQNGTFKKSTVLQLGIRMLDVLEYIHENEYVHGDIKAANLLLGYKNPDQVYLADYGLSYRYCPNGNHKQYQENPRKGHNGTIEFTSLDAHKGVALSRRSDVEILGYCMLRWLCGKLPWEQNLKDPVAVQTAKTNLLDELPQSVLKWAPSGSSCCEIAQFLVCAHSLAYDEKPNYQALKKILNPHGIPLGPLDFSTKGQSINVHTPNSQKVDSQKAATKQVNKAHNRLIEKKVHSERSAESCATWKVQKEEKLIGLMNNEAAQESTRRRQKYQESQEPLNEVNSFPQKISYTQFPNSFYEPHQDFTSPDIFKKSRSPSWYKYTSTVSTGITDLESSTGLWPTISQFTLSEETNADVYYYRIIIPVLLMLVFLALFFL
# Outline: as §1
# [7] = target: T7, ZAK/MLTK (Homo sapiens, UniProt Q9NYL2)
# T7 construct: purchased Reaction Biology Corp
# T7 sequence (Q9NYL2 whole entry): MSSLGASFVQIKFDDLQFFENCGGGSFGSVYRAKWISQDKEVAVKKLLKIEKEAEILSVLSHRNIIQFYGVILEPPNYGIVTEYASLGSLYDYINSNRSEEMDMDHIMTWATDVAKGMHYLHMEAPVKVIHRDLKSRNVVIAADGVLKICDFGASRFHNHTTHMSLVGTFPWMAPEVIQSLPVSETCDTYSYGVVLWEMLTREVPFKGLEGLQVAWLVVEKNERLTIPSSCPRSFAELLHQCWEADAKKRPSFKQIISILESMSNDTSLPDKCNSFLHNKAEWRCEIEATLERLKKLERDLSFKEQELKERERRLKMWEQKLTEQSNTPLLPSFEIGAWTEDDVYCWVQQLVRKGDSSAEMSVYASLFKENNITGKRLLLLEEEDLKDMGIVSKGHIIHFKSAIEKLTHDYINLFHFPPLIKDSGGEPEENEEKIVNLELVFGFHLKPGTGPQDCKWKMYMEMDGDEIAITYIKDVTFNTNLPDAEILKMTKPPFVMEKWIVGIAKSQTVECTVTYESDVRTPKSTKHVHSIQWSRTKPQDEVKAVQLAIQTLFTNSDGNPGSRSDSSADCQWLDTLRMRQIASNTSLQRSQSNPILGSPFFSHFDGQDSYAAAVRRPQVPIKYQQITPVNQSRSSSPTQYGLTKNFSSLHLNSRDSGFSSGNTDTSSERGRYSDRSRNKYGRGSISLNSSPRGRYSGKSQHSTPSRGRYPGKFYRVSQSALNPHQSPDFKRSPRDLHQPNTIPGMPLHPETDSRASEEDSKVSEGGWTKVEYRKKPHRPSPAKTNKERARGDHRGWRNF
# Outline: as §1
# [8] = read-out: % Enzyme Activity (relative to DMSO controls) Run 1
# [9] = read-out: % Enzyme Activity (relative to DMSO controls) Run 2
# T1 sequence (O00238 14-502): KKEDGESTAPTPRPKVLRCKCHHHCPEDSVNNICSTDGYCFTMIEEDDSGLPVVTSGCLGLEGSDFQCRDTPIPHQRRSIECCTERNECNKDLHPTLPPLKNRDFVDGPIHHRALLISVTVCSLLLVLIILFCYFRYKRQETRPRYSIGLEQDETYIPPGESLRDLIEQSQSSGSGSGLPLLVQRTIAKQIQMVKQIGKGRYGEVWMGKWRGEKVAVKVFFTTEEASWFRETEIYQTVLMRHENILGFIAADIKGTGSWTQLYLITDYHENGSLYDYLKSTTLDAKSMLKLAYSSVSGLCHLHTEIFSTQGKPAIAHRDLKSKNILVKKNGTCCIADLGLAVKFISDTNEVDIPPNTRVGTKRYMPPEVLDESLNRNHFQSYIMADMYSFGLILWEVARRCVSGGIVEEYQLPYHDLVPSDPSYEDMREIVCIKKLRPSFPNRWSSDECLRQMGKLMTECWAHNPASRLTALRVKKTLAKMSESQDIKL
structure (smiles),measurement,setting,value
C=CC(=O)Nc1cccc(Nc2nc(Nc3ccc(OCCOC)c(F)c3)ncc2F)c1 [Compound 2],inhibition at 3 µM,[1],-80.4%
same,remaining activity at 3 µM,[1]; [8],177%
same,remaining activity at 3 µM,[1]; [9],184%
same,inhibition at 3 µM,[2],1.86%
same,remaining activity at 3 µM,[2]; [8],103%
same,remaining activity at 3 µM,[2]; [9],93.5%
same,inhibition at 3 µM,[3],11.4%
same,remaining activity at 3 µM,[3]; [8],88.4%
same,remaining activity at 3 µM,[3]; [9],88.8%
same,inhibition at 3 µM,[4],-5.47%
same,remaining activity at 3 µM,[4]; [8],105%
same,remaining activity at 3 µM,[4]; [9],106%
same,inhibition at 3 µM,[5],14.2%
same,remaining activity at 3 µM,[5]; [8],87.2%
same,remaining activity at 3 µM,[5]; [9],84.5%
same,inhibition at 3 µM,[6],5.06%
same,remaining activity at 3 µM,[6]; [8],94%
same,remaining activity at 3 µM,[6]; [9],95.9%
same,inhibition at 3 µM,[7],15.7%
same,remaining activity at 3 µM,[7]; [8],83.7%
same,remaining activity at 3 µM,[7]; [9],85%
